Data reported in the NIST ThermoML archive (doi:10.1021/je700260f).

Conditions: 293.15 K, Liquid, Vibrating tube method

FC(C(F)(F)F)C(F)(F)F [1,1,1,2,3,3,3-heptafluoropropane]
Conditions	mass density [kg/m3]
6323 kPa	1446.4
6351 kPa	1446.6
6375 kPa	1446.8
6408 kPa	1446.9
6437 kPa	1447
6477 kPa	1447.3
6508 kPa	1447.5
6534 kPa	1447.6
6566 kPa	1447.6
6593 kPa	1447.9
6624 kPa	1448.1
6655 kPa	1448.4
6682 kPa	1448.4
6721 kPa	1448.5
6752 kPa	1448.8
6792 kPa	1449
6823 kPa	1449.3
6862 kPa	1449.5
6885 kPa	1449.5
6918 kPa	1449.8
6944 kPa	1449.9
6979 kPa	1450
7002 kPa	1450.1
7034 kPa	1450.4
7074 kPa	1450.7
7106 kPa	1450.7
7134 kPa	1450.8
7160 kPa	1450.9
7196 kPa	1451.2
7223 kPa	1451.4
7255 kPa	1451.5
7292 kPa	1451.6
7319 kPa	1451.9
7352 kPa	1452
7380 kPa	1452.1
7413 kPa	1452.4
7445 kPa	1452.6
7478 kPa	1452.7
7506 kPa	1452.9
7543 kPa	1453.2
7575 kPa	1453.2
7829 kPa	1454.6
8576 kPa	1458.4
8615 kPa	1458.6
8640 kPa	1458.7
8669 kPa	1458.9
8716 kPa	1459.1
8745 kPa	1459.3
8774 kPa	1459.5
8814 kPa	1459.7
8862 kPa	1459.9
8888 kPa	1460
8923 kPa	1460.2
8958 kPa	1460.4
8988 kPa	1460.5
9023 kPa	1460.7
9057 kPa	1461
9081 kPa	1461.1
9121 kPa	1461.1
9156 kPa	1461.3
9182 kPa	1461.5
9258 kPa	1461.9
9989 kPa	1465.5
10025 kPa	1465.7
10056 kPa	1465.8
10087 kPa	1465.9
10128 kPa	1466.3
10154 kPa	1466.4
10195 kPa	1466.7
10240 kPa	1466.8
10275 kPa	1466.7
10316 kPa	1467.1
10555 kPa	1468.1
10597 kPa	1468.5
10638 kPa	1468.7
10669 kPa	1468.7
10706 kPa	1469
10738 kPa	1469.2
10775 kPa	1469.4
10808 kPa	1469.4
10851 kPa	1469.6
10882 kPa	1469.7
10920 kPa	1470
10958 kPa	1470.2
11044 kPa	1470.6
11082 kPa	1470.6
11132 kPa	1470.9
11159 kPa	1471.4
11209 kPa	1471.3
11254 kPa	1471.6
11292 kPa	1471.8
11324 kPa	1471.9
11368 kPa	1472.1
11401 kPa	1472.3
11439 kPa	1472.4
11473 kPa	1472.6
11518 kPa	1472.8
11556 kPa	1472.9
11601 kPa	1473.2
11629 kPa	1473.3
11668 kPa	1473.4
11713 kPa	1473.7
11752 kPa	1473.8
